Measurements as given in article PMC10681907, “2-Hydroxyglutarate modulates histone methylation at specific loci and alters gene expression via Rph1 inhibition” (Life Science Alliance, 2023).

Columns and labels:
Assay in all cases: FDH-coupled fluorescent demethylase assay, initial velocities, Hill fit
Assay type in all cases: biochemical
Gis1 = target: T1, Gis1 (Saccharomyces cerevisiae, UniProt Q03833)
T1 construct: full-length, N-terminal Strep(II) tag (pET51b+), expressed in E. coli BL21 Star (DE3), codon-optimized
T1 sequence (Q03833 1-894): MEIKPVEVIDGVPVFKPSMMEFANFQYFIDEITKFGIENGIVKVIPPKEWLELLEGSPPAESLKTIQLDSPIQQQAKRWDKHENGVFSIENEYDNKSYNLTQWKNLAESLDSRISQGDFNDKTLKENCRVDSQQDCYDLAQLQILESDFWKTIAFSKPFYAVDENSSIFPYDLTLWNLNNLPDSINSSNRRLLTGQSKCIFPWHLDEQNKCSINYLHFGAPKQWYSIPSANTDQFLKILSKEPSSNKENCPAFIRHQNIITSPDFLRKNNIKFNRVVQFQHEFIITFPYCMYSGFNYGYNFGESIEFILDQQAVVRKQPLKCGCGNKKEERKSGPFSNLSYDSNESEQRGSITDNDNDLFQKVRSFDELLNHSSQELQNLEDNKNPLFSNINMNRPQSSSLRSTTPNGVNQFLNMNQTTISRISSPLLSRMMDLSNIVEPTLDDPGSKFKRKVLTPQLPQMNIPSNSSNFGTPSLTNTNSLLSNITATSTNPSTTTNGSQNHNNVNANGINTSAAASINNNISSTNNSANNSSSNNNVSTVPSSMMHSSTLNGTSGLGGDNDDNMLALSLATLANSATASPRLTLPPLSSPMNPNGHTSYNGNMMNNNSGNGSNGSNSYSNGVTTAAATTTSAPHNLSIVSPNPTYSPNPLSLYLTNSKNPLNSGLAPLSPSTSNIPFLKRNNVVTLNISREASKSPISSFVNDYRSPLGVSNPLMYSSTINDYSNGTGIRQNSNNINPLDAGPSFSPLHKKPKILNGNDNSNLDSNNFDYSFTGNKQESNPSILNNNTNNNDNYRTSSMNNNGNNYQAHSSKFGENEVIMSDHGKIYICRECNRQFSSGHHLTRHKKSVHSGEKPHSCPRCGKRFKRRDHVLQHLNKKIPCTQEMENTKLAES

Jhd2 = target: T2, Jhd2 (Saccharomyces cerevisiae, UniProt P47156)
T2 construct: full-length, N-terminal Strep(II) tag (pET51b+), expressed in E. coli BL21 Star (DE3), codon-optimized
T2 sequence (P47156 1-728): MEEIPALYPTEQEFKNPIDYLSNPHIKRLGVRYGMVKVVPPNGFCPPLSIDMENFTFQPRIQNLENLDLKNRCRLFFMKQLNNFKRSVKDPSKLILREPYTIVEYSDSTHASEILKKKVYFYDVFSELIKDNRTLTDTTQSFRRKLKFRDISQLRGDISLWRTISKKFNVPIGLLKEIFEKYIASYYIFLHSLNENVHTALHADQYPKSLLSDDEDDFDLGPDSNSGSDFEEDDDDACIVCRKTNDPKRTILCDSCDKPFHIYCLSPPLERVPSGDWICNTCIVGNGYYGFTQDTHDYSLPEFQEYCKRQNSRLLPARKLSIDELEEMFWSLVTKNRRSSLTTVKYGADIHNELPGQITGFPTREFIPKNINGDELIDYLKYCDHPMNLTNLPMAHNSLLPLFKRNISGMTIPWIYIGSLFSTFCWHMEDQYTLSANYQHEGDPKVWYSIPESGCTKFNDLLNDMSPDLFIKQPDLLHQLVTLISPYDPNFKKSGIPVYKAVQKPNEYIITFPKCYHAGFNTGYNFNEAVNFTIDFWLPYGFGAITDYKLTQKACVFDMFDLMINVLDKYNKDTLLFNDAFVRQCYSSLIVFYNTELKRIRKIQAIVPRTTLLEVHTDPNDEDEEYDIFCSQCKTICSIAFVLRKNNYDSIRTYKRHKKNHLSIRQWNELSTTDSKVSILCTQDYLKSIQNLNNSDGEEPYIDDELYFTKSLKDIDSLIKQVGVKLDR

Rph1 = target: T3, Rph1 (Saccharomyces cerevisiae, UniProt P39956)
T3 construct: full-length, N-terminal Strep(II) tag (pET51b+), expressed in E. coli BL21 Star (DE3), codon-optimized

Jhd1 = target: T4, Jhd1 (Saccharomyces cerevisiae, UniProt P40034)
T4 construct: full-length, N-terminal Strep(II) tag (pET51b+), expressed in E. coli BL21 Star (DE3), codon-optimized
T4 sequence (P40034 1-492): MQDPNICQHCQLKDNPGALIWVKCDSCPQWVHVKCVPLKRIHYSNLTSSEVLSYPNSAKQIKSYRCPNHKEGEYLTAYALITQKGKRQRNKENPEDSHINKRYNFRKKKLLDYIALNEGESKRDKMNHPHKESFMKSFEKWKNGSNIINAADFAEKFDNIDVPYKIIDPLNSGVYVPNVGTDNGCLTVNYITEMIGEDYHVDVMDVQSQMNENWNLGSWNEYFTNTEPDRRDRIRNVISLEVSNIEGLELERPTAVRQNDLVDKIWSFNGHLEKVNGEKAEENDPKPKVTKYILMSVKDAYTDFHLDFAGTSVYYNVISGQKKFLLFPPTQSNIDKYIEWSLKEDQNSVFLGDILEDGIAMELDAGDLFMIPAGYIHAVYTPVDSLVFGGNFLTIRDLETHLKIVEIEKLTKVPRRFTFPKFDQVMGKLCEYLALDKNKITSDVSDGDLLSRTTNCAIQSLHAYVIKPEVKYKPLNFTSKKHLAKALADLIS

T3 sequence (P39956 whole entry): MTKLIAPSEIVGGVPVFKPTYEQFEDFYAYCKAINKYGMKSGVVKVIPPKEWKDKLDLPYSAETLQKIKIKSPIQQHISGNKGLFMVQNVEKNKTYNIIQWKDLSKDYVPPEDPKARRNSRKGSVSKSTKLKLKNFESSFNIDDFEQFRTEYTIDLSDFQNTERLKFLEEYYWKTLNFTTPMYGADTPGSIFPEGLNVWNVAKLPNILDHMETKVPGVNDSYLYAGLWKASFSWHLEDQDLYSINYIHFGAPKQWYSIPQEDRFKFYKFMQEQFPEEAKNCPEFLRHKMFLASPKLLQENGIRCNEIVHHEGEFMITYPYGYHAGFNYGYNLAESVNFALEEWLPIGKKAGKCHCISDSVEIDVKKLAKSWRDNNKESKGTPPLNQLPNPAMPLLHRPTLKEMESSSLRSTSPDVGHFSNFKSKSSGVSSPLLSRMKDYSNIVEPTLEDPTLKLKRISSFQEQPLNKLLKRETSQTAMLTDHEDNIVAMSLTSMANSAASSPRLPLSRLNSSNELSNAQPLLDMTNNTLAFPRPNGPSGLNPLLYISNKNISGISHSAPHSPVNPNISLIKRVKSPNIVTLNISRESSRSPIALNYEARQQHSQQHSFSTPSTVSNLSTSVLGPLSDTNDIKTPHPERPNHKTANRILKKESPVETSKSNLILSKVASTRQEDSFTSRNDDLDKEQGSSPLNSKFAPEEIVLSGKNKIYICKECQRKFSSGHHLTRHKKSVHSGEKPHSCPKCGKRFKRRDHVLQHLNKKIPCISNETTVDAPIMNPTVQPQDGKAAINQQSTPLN

## O=C(O)CC[C@@H](O)C(=O)O [2-HG]
Gis1
  IC50: ~3100 µM
Jhd2
  IC50: ~2200 µM
Rph1
  IC50: ~1300 µM
Jhd1
  IC50: ~2000 µM
